Tests used:
[1] = biological target: GDP-bound HRAS wild-type protein (Homo sapiens, UniProt P01112); assay: Binding to HRAS by surface plasmon resonance (SPR), Single Cycle Kinetics; conditions: for HRAS/KRAS (ratio of KD value for HRAS to KD value for KRAS): SPR, GDP-bound HRAS wild-type protein vs GDP-bound KRAS wild-type protein; for HRAS/KRAS (ratio of KD value with respect to GDP-bound HRAS wild-type protein to KD value with respect to KRAS): SPR KD ratio HRAS/KRAS, class symbols
[2] = biological target: GDP-bound NRAS wild-type protein (Homo sapiens, UniProt P01111); assay: Binding to NRAS by surface plasmon resonance (SPR), Single Cycle Kinetics; conditions: for NRAS/KRAS (ratio of KD value for NRAS to KD value for KRAS): SPR, GDP-bound NRAS wild-type protein vs GDP-bound KRAS wild-type protein; for NRAS/KRAS (ratio of KD value with respect to GDP-bound NRAS wild-type protein to KD value with respect to KRAS): SPR KD ratio NRAS/KRAS, class symbols
Chain of GDP-bound NRAS wild-type protein (P01111 whole entry): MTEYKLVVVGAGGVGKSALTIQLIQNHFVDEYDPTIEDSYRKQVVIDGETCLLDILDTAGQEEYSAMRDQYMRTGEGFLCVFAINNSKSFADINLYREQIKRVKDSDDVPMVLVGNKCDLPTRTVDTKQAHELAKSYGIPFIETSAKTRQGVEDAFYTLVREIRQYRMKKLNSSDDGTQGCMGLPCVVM

Chain of GDP-bound HRAS wild-type protein (P01112 whole entry): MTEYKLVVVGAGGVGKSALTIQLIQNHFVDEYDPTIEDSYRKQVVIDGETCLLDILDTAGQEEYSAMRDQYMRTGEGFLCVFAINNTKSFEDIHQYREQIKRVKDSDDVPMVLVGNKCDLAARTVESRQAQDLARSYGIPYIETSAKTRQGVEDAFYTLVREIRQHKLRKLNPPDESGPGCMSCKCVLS

SMILES	HRAS/KRAS (ratio of KD value for HRAS to KD value for KRAS) [1]	NRAS/KRAS (ratio of KD value for NRAS to KD value for KRAS) [2]	HRAS/KRAS (ratio of KD value with respect to GDP-bound HRAS wild-type protein to KD value with respect to KRAS) [1]	NRAS/KRAS (ratio of KD value with respect to GDP-bound NRAS wild-type protein to KD value with respect to KRAS) [2]
CCCOC[C@H]1C(=O)N[C@@H]([C@@H](C)CC)C(=O)N(C)CC(=O)N(C)[C@H]2C/C=C\CCN(C2=O)[C@@H](Cc2ccc(C)cc2)C(=O)N(C)CC(=O)N[C@@H](CCc2ccc(C(F)(F)F)c(OC)c2)C(=O)N2C[C@H](OCC)C[C@H]2C(=O)N(C)C2(CCC2)C(=O)N(C)[C@@H](C(CC)CC)C(=O)N(C)[C@H](C(=O)N(C)C)CC(=O)N1C [PP2323]	A (a compound having 10 or more and less than 20 is denoted as A)	A (a compound having 10 or more and less than 20 is denoted as A)		
CCC[C@H]1C(=O)N[C@@H]([C@@H](C)CC)C(=O)N(C2CC2)CC(=O)N(C)[C@H]2C/C=C\CCN(C2=O)[C@@H](Cc2ccc(C)cc2)C(=O)N(C)CC(=O)N[C@@H](CCc2ccc(C(F)(F)F)c(OC)c2)C(=O)N2C[C@H](OCC)C[C@H]2C(=O)N(C)C2(CCC2)C(=O)N(C)[C@@H](C(CC)CC)C(=O)N(C)[C@H](C(=O)N(C)C)CC(=O)N1C [PP2325]	A (a compound having 10 or more and less than 20 is denoted as A)	A (a compound having 10 or more and less than 20 is denoted as A)		
CCCOC[C@H]1C(=O)N[C@@H]([C@@H](C)CC)C(=O)N(C)CC(=O)N(C)[C@H]2C/C=C\CCN(C2=O)[C@@H](Cc2ccc(C)cc2)C(=O)N(C)CC(=O)N[C@@H](CCc2ccc(C(F)(F)F)c(OC)c2)C(=O)N2C[C@H](OCC)C[C@H]2C(=O)N(C)C2(CCC2)C(=O)N(C)[C@@H](C2CCCC2)C(=O)N(C)[C@H](C(=O)N(C)C)CC(=O)N1C [PP2326]	B (a compound having 3 or more and less than 10 is denoted as B)	A (a compound having 10 or more and less than 20 is denoted as A)		
CCC[C@H]1C(=O)N[C@@H]([C@@H](C)CC)C(=O)N(C2CC2)CC(=O)N(C)[C@H]2C/C=C\CCN(C2=O)[C@@H](CC2CCCCC2)C(=O)N(C)CC(=O)N[C@@H](CCc2ccc(C(F)(F)F)c(OC)c2)C(=O)N2C[C@H](OCC)C[C@H]2C(=O)N(C)C2(CCC2)C(=O)N(C)[C@@H](C2CCCC2)C(=O)N(C)[C@H](C(=O)N(C)C)CC(=O)N1C [PP2340]	B (a compound having 3 or more and less than 10 is denoted as B)	B (a compound having 3 or more and less than 10 is denoted as B)		
CCOC[C@H]1C(=O)N[C@@H]([C@@H](C)CC)C(=O)N(C2CC2)CC(=O)N(C)[C@H]2C/C=C\CCN(C2=O)[C@@H](CC2CCCCC2)C(=O)N(C)CC(=O)N[C@@H](CCc2ccc(C(F)(F)F)c(OC)c2)C(=O)N2C[C@H](OCC)C[C@H]2C(=O)N(C)C2(CCC2)C(=O)N(C)[C@@H](C2CCCC2)C(=O)N(C)[C@H](C(=O)N(C)C)CC(=O)N1C [PP2342]	A (a compound having 10 or more and less than 20 is denoted as A)	A (a compound having 10 or more and less than 20 is denoted as A)		
CCOC[C@H]1C(=O)N[C@@H]([C@@H](C)CC)C(=O)N(C2CC2)CC(=O)N(C)[C@H]2C/C=C\CCN(C2=O)[C@@H](CC2CCC(F)(F)CC2)C(=O)N(C)CC(=O)N[C@@H](CCc2ccc(C(F)(F)F)c(OC)c2)C(=O)N2C[C@H](OCC)C[C@H]2C(=O)N(C)C2(CCC2)C(=O)N(C)[C@@H](C(CC)CC)C(=O)N(C)[C@H](C(=O)N(C)C)CC(=O)N1C [PP2351]	A (a compound having 10 or more and less than 20 is denoted as A)	A (a compound having 10 or more and less than 20 is denoted as A)		
CCCOC[C@H]1C(=O)N[C@@H]([C@@H](C)CC)C(=O)N(C2CC2)CC(=O)N(C)[C@H]2C/C=C\CCN(C2=O)[C@@H](CC2CCC(F)(F)CC2)C(=O)N(C)CC(=O)N[C@@H](CCc2ccc(C(F)(F)F)c(OC)c2)C(=O)N2C[C@H](OCC)C[C@H]2C(=O)N(C)C2(CCC2)C(=O)N(C)[C@@H](C2CCCC2)C(=O)N(C)[C@H](C(=O)N(C)C)CC(=O)N1C [PP2354]	A (a compound having 10 or more and less than 20 is denoted as A)	A (a compound having 10 or more and less than 20 is denoted as A)		
CCO[C@@H]1C[C@H]2C(=O)NC3(CC(C)(C)C3)C(=O)N(C)[C@@H](C(CC)CC)C(=O)N(C)[C@H](C(=O)N(C)C)CC(=O)N(C)[C@H]3CC/C=C/c4ccc(cc4)C[C@@H](C(=O)N(C)CC(=O)N[C@@H](CCc4cc(F)c(C(F)(F)F)c(F)c4)C(=O)N2C1)N1CC/C=C\C[C@@H](C1=O)N(C)C(=O)CN(C)C(=O)[C@H]([C@@H](C)CC)NC3=O [PP2586]			B (a compound having 3 or more and less than 10 is denoted as B)	A (a compound having 10 or more and less than 20 is denoted as A)
CCO[C@@H]1C[C@H]2C(=O)NC3(CC(C)(C)C3)C(=O)N(C)[C@@H](C(CC)CC)C(=O)N(C)[C@H](C(=O)N(C)C)CC(=O)N(C)[C@H]3CC/C=C/c4ccc(cc4)C[C@@H](C(=O)N(C)CC(=O)N[C@@H](CCc4ccc(Cl)c(Cl)c4)C(=O)N2C1)N1CC/C=C\C[C@@H](C1=O)N(C)C(=O)CN(C)C(=O)[C@H]([C@@H](C)CC)NC3=O [PP2589]			A (a compound having 10 or more and less than 20 is denoted as A)	AA (a compound having 20 or more is denoted as AA)
CCO[C@@H]1C[C@H]2C(=O)NC3(CC(C)(C)C3)C(=O)N(C)[C@@H](C3CCCC3)C(=O)N(C)[C@H](C(=O)N(C)CC)CC(=O)N(C)[C@H]3CC/C=C/c4ccc(cc4)C[C@@H](C(=O)N(C)CC(=O)N[C@@H](CCc4ccc(Cl)c(Cl)c4)C(=O)N2C1)N1CC/C=C\C[C@@H](C1=O)N(C)C(=O)CN(C1CC1)C(=O)[C@H]([C@@H](C)CC)NC3=O [PP2598]			A (a compound having 10 or more and less than 20 is denoted as A)	A (a compound having 10 or more and less than 20 is denoted as A)
CCO[C@@H]1C[C@H]2C(=O)NC3(CCC3)C(=O)N(C)[C@@H](C(CC)CC)C(=O)N(C)[C@H](C(=O)N(C)C)CC(=O)N(C)[C@H]3CCCC/C=C/c4ccc(cc4)C[C@@H](C(=O)N(C)CC(=O)N[C@@H](CCc4ccc(Cl)c(Cl)c4)C(=O)N2C1)N1CC/C=C\C[C@@H](C1=O)N(C)C(=O)CN(C1CC1)C(=O)[C@H]([C@@H](C)CC)NC3=O [PP2605]			A (a compound having 10 or more and less than 20 is denoted as A)	AA (a compound having 20 or more is denoted as AA)
CCO[C@@H]1C[C@H]2C(=O)NC3(CCC3)C(=O)N(C)[C@@H](C3CCCC3)C(=O)N(C)[C@H](C(=O)N(C)C)CC(=O)N(C)[C@@H](CC3CCCC3)C(=O)N[C@@H]([C@@H](C)CC)C(=O)N(C)CC(=O)N(C)[C@H]3C/C=C\CCN(C3=O)[C@@H](Cc3ccc(C)cc3)C(=O)N(C)CC(=O)N[C@@H](CCc3ccc(C(F)(F)F)c(CC)c3)C(=O)N2C1 [PP2672]			B (a compound having 3 or more and less than 10 is denoted as B)	B (a compound having 3 or more and less than 10 is denoted as B)
CCO[C@@H]1C[C@H]2C(=O)NC3(CCC3)C(=O)N(C)[C@@H](C3CCCC3)C(=O)N(C)[C@H](C(=O)N(C)C)CC(=O)N(C)[C@@H](CC3CCCC3)C(=O)N[C@@H]([C@@H](C)CC)C(=O)N(C)CC(=O)N(C)[C@H]3C/C=C\CCN(C3=O)[C@@H](Cc3ccc(C)cc3)C(=O)N(C)CC(=O)N[C@@H](CCc3ccc(C4CC4)c(Cl)c3)C(=O)N2C1 [PP2684]			A (a compound having 10 or more and less than 20 is denoted as A)	A (a compound having 10 or more and less than 20 is denoted as A)
CCO[C@@H]1C[C@H]2C(=O)NC3(CCC3)C(=O)N(C)[C@@H](C3CCCC3)C(=O)N(C)[C@H](C(=O)N(C)C)CC(=O)N(C)[C@@H](CC3CCCC3)C(=O)N[C@@H]([C@@H](C)CC)C(=O)N(C)CC(=O)N(C)[C@H]3C/C=C\CCN(C3=O)[C@@H](Cc3ccc(C)cc3)C(=O)N(C)CC(=O)N[C@@H](CCc3ccc(CC)c(F)c3)C(=O)N2C1 [PP2686]			A (a compound having 10 or more and less than 20 is denoted as A)	A (a compound having 10 or more and less than 20 is denoted as A)
CCO[C@@H]1C[C@H]2C(=O)NC3(CC(C)(C)C3)C(=O)N(C)[C@@H](C3CCCC3)C(=O)N(C)[C@H](C(=O)N(C)C)CC(=O)N(C)[C@@H](CC(C)C)C(=O)N[C@@H]([C@@H](C)CC)C(=O)N(C)CC(=O)N(C)[C@H]3C/C=C\CCN(C3=O)[C@@H](Cc3ccc(C)cc3F)C(=O)N(C)CC(=O)N[C@@H](CCc3ccc(C(F)(F)F)c(OC)c3)C(=O)N2C1 [PP2688]			B (a compound having 3 or more and less than 10 is denoted as B)	A (a compound having 10 or more and less than 20 is denoted as A)
